This is an account of results in patent US4093715A, “5-Iodo-5'-amino-2',5'-dideoxycytidine and the pharmaceutically acceptable salts thereof” (priority 1977, dated 1978).

For series [1], the system named is herpes simplex virus strain HSV-1 (prototype). Put plainly: Inhibition of herpes simplex virus replication (titre reduction by plaque assay) in infected Vero cells. The series is classed as cell-based, herpes simplex virus type 1. The procedure: The compounds of this invention manifest a high order to inhibition with various herpes simplex viruses. For example, when tested against strain HSV-1 (prototype) at a concentration of 400 μM the average log reduction in titre was 1.4.
(§1) Standard procedures were used to maintain the virus and the Vero cells. This included growth and titration by plaque assay as well as the replications of the virus in the presence of the test compounds. Cells were maintained and infected in Dulbecco's medium with 10% fetal calf serum.
For testing, the cells were infected with virus at a ratio of approximately 10 plaque forming units per cell. The viral inoculum was drained after one hour adsorption at 37° C. An appropriate volume of medium containing the compound for testing was added. After 36-48 hours at 37° C, the infected cells were frozen until ready for titration.

The test system of the next series is Vero cells. Briefly: Cytotoxicity. The series is classed as cell-based.
Text: as §1

The conditions of series [2]: cited from earlier work.
For another series, the system named is newborn rats. As to conditions: systemic administration; cited from earlier work.
The next series has as its system pregnant rabbits. As to conditions: topically to the eye, doses similar to those used clinically in humans; cited from earlier work.
A further series concerns mice. Put plainly: Acute toxicity in mice. The conditions noted are these: for lethality, acute toxicity: mice. The series is classed as in vivo. The procedure:
Acute toxicity of AIC in mice indicates no lethality at 200 mg/kg of body weight. However, at a level as high as 400 mg/kg the compound is lethal to mice.

Series [3] concerns experimental herpes simplex keratitis. Briefly: Treatment of experimental herpes simplex keratitis in rabbits. The series is classed as in vivo. As to conditions: topical drops 4 mg/ml at 4 hour intervals for 72 hours starting 24 hours after infection, graded daily for 11 days. As for the experimental part: One advantage of AIC has been established by the treatment of rabbits. In this study, experimental herpes simplex keratitis was established bilaterally in 16 rabbits. These were divided into 2 matched groups of 8. Each group was treated in a double blind fashion with topical drops at 4 hour intervals for 72 hours starting 24 hours after infection. The solutions administered were:
2. AIC, 4 mg/ml Each eye was examined daily for 11 days and graded by two ophthalmologists.

In the case of `O=c1[nH]c(=O)n([C@H]2C[C@H](O)[C@@H](CO)O2)cc1I` [idoxuridine, 5-iodo-deoxy-uridine], the “antiviral activity (in words)” value in series [1] (at relatively low levels) was “high order of activity”. Besides, the cytotoxicity result with Vero cells (at a concentration of 50 μM) is given as “almost totally cytotoxic”. Moreover, in series [2] (ocular use in herpes simplex keratitis), the undesirable side effects result is “follicular and papillary conjunctivitis, and epithelial punctate keratopathy”. Also, the cellular toxicity result in series [2] (therapy of herpes simplex keratitis) is recorded as “significant cellular toxicity”. Further, the teratogenicity result with newborn rats and in the series with pregnant rabbits was “teratogenicity” each time.

Consider `NC[C@H]1O[C@@H](n2cc(I)c(N)nc2=O)C[C@@H]1O` [AIC, 5-Iodo-5'-amino-2',5'-dideoxycytidine], for which the log reduction at 400 µM in series [1] (Human alphaherpesvirus 1, HSV-1 (prototype), 400 μM, infected Vero cells, ~10 pfu per cell, 36-48 hours at 37° C) was 1.4. Also, the cytotoxicity entry in the series with Vero cells (at treatment levels as high as 1600 μM) is listed as “No cytotoxicity is evident”. For the same compound, the “lethality, acute toxicity” value in the series with mice (200 mg/kg of body weight) is recorded as “no lethality”; with mice (400 mg/kg), “lethal”. Besides, the “therapeutic index (in words)” value in the series on mice (from acute toxicity in mice coupled with activity) is on record as “good therapeutic index”. In addition, the “therapeutic effectiveness in herpes simplex keratitis” value in series [3] is on record as “effective therapeutically”.
